From the Deep4Chem optical property database
Several values for one entry are separate records, joined by “and”; a condition that tells them apart may be missing. Identical values can stand only once. Each block holds one compound with its values, some of them ahead of it.

Test: solvent given as SMILES

Structure (SMILES): CC1(C)c2ccccc2N(c2ccc(-c3ncccn3)cc2)c2ccccc21
fluorescence lifetime (in O=P(c1ccccc1)(c1ccccc1)c1ccc2oc3ccc(P(=O)(c4ccccc4)c4ccccc4)cc3c2c1): 11 ns

Structure (SMILES): C#CCNC1=C2C=CC=[N+]2[B-](F)(F)n2cccc21
fluorescence lifetime (in C1CCCCC1): 6.36 ns and 5.34 ns
fluorescence lifetime (in CC(C)=O): 4.92 ns
fluorescence lifetime (in CCCCO): 6.02 ns
fluorescence lifetime (in CCCO): 5.16 ns
fluorescence lifetime (in CCO): 4.14 ns and 3.81 ns
fluorescence lifetime (in CCOC(C)=O): 5.13 ns
fluorescence lifetime (in CN(C)C=O): 2.98 ns
fluorescence lifetime (in CO): 3.22 ns
fluorescence lifetime (in CS(C)=O): 1.73 ns
fluorescence lifetime (in Cc1ccccc1): 6.56 ns
fluorescence lifetime (in ClC(Cl)Cl): 5.29 ns
fluorescence lifetime (in OCC(F)(F)F): 6.34 ns
fluorescence lifetime (in c1ccccc1): 6.28 ns

Structure (SMILES): Fc1cc(-c2nc(-c3ccccc3)nc(-c3ccccc3)n2)ccc1-n1c2ccccc2c2c3c(ccc21)C1(c2ccccc2-c2ccccc21)c1ccccc1-3
fluorescence lifetime (in O=P(c1ccccc1)(c1ccccc1)c1ccccc1Oc1ccccc1P(=O)(c1ccccc1)c1ccccc1): 8.3 ns

Structure (SMILES): Cc1cc(C)c(B(c2c(C)cc(C)cc2C)c2cc3ccc4ccccc4c3c3c2cc(N(C)C)c2ccccc23)c(C)c1
fluorescence lifetime (in C1CCCCC1): 8.8 ns

Structure (SMILES): CC(C)c1cccc(C(C)C)c1N1C(=O)c2cccc3c(Oc4ccc(C(C)(C)c5ccccc5)cc4)ccc(c23)C1=O
fluorescence lifetime (in ClCCl): 1.2 ns

Structure (SMILES): N#CC1=c2c3cccc4cccc(c43)n2[B-](F)(F)[n+]2ccccc21
fluorescence lifetime (in ClCCl): 8.7 ns

Structure (SMILES): COC(=O)c1cc(=O)n(C)c2cc(-c3ccc(Oc4ccccc4)cc3)sc12
fluorescence lifetime (in ClCCl): 2.83 ns

Structure (SMILES): CC1=[N+]2C(=C(c3ccccc3C)c3ccc(C)n3[B-]2(F)F)C=C1c1cc2n(c1)[B-](F)(F)[N+]1=CC=CC1=C2c1c(C)cc(C)cc1C
fluorescence lifetime (in C1CCCCC1): 2.84 ns
fluorescence lifetime (in CCOC(C)=O): 0.81 ns

Structure (SMILES): O=C1c2ccc(-c3ccc(N(c4ccccc4)c4ccccc4)cc3)cc2C(=O)c2ccc(-c3ccc(N(c4ccccc4)c4ccccc4)cc3)cc21
fluorescence lifetime (in Cc1ccccc1): 9 ns
fluorescence lifetime (in c1ccc2c(c1)c1ccccc1n2-c1ccc(-c2ccc(-n3c4ccccc4c4ccccc43)cc2)cc1): 10.2 ns

Structure (SMILES): CC1(C)OB(c2cc3ccc4cccc5ccc(c2)c3c45)OC1(C)C
fluorescence lifetime (in Cc1ccccc1): 82 ns

Structure (SMILES): O=C(O)CCCCCn1c2ccc(Br)cc2c(=O)c2cc(Br)ccc21
fluorescence lifetime (in O): 6 ns

Structure (SMILES): CCOC(=O)CN1C(=O)C2=C(c3ccc(N4CCCCC4)cc3)N(CC(=O)OCC)C(=O)C2=C1c1ccc(C#N)cc1
fluorescence lifetime (in CC#N): 3.57 ns
fluorescence lifetime (in CS(C)=O): 3.72 ns
fluorescence lifetime (in Cc1ccccc1): 4.41 ns

Second part, the compound after the results:

fluorescence lifetime (in ClCCl): 2.56 ns
Structure (SMILES): CCCCOc1ccc(-c2oc3c(-c4ccc(OCCCC)cc4)c4n(c3c2-c2ccc(OCCCC)cc2)[B-](F)(F)[N+]2=Cc3c(-c5ccc(OCCCC)cc5)c5oc(-c6ccc(OCCCC)cc6)c(-c6ccc(OCCCC)cc6)c5n3[B-](F)(F)[N+]2=C4)cc1

fluorescence lifetime (in CC#N): 8.7 ns
fluorescence lifetime (in ClCCl): 3.3 ns
Structure (SMILES): Cc1ccc(-c2cc(C)[o+]c(C)c2)cc1

fluorescence lifetime (in c1cc(-n2c3ccccc3c3ccccc32)cc(-n2c3ccccc3c3ccccc32)c1): 86 ns
Structure (SMILES): N#Cc1cc(-n2c3ccccc3c3cccnc32)c(-n2c3ccccc3c3cccnc32)cc1C#N

fluorescence lifetime (in ClCCl): 6.41 ns
Structure (SMILES): CCc1c(C)c2n(c1C)[B-](F)(F)[N+]1=C(c3ccc[nH]3)c3ccccc3C1=C2

fluorescence lifetime (in ClC(Cl)Cl): 1.69 ns
Structure (SMILES): COc1ccc(C2=c3sc(-c4ccc(OC)cc4)cc3=[N+]3C2=Nc2c(-c4ccc(OC)cc4)c4sc(-c5ccc(OC)cc5)cc4n2[B-]3(F)F)cc1

fluorescence lifetime (in CC#N): 216 ns
Structure (SMILES): C1=CC2CC1C1C2[C@@]2(c3ccccc3)N=NC1(c1ccccc1)[C@@H]1C[C@H]12 (stereo not given in full)

fluorescence lifetime (in ClCCl): 11.1 ns
Structure (SMILES): O=c1c2cccc3cccc(c32)c2nc3ccccc3n12

fluorescence lifetime (in CCO): 4.72 ns
fluorescence lifetime (in CN(C)C=O): 5.08 ns
fluorescence lifetime (in CS(C)=O): 5.3 ns
Structure (SMILES): c1ccc(-c2oc(-c3ccccc3)c3ccccc23)cc1

fluorescence lifetime (in CC#N): 2.46 ns
fluorescence lifetime (in CCO): 2.96 ns
fluorescence lifetime (in CN(C)C=O): 2.84 ns
fluorescence lifetime (in O): 1.49 ns
Structure (SMILES): CCN(CC)c1ccc2c(-c3ccc(S(=O)(=O)[O-])cc3S(=O)(=O)[O-])c3ccc(=[N+](CC)CC)cc-3oc2c1

fluorescence lifetime (in C1CCOC1): 1.6 ns
Structure (SMILES): CCC1(CC)c2ccccc2-c2c1c1c(c3c2C(CC)(CC)c2cc(N(c4ccccc4)c4ccccc4)ccc2-3)C(CC)(CC)c2ccccc2-1

fluorescence lifetime (in ClCCl): 0.97 ns
Structure (SMILES): Oc1ccc2ccccc2c1-c1nc2c(c3c1-c1ccccc1CC3)-c1ccccc1CC2

fluorescence lifetime (in ClCCl): 3.65 ns
Structure (SMILES): c1cc2c3c(c1)ccc1[n+]3[B-]3(Oc4cccc5ccc6[n+](c45)[B-](O2)(O3)n2c-6cc3c4ccccc4c4ccccc4c32)n2c-1cc1c3ccccc3c3ccccc3c12

fluorescence lifetime (in CC1CCCCC1): 2.48 ns
fluorescence lifetime (in CC#N): 1.38 ns
fluorescence lifetime (in CC(C)CC(C)(C)C): 2.38 ns
fluorescence lifetime (in CC(C)O): 2.94 ns
fluorescence lifetime (in CCCCCC): 1.52 ns
fluorescence lifetime (in CCCCO): 3.7 ns
fluorescence lifetime (in CCO): 2.9 ns
fluorescence lifetime (in CO): 2.04 ns
fluorescence lifetime (in OCC(O)CO): 7.53 ns
Structure (SMILES): COc1c2ccccc2c(-c2ccccc2)c2ccccc12

fluorescence lifetime (in ClC(Cl)Cl): 26 ns
Structure (SMILES): c1ccc2c(c1)ccc1ccc3ccc4ccccc4c3c12

fluorescence lifetime (in CC#N): 5.59 ns
fluorescence lifetime (in ClCCl): 5.33 ns
Structure (SMILES): CCOC(=O)c1ccc2nc(/N=N/c3ccc(N(CC)CC)cc3)sc2c1

fluorescence lifetime (in C1CCCCC1): 9 ns
Structure (SMILES): C[Si](C)(C)C#Cc1cccc2ccccc12

fluorescence lifetime (in C1CCOC1): 1.7 ns
Structure (SMILES): CCC1(CC)c2ccccc2-c2c1c1c(c3c2C(CC)(CC)c2cc(-c4cccs4)ccc2-3)C(CC)(CC)c2cc(N(c3ccccc3)c3ccccc3)ccc2-1
